{"source": "patent US7968595B2", "about": "“Substituted 4-aryl-chromene as activator of caspases and inducer of apoptosis and as antivascular agent and the use thereof” (Cytovia, Inc., priority 2006, dated 2011)", "key": {"[1]": {"tested_on": "MX1 human breast cancer tumors", "test": "In vivo antitumor activity in MX-1 model, combination with cisplatin and doxorubicin", "design": "species or system mice", "details": "1R 40 mg/kg, IV", "method": "MX1 human breast cancer tumors were obtained from the NCI-FCRDC and maintained as tumors in nude mice. Tumor bits were implanted with a trocar into the right mammary area of female nu/nu mice and allowed to grow to an average size of 200-250 mg, about 12 days after being implanted. Animals were randomized and assigned to study groups of 8-10 animals/group. Body weight were determined and tumor size were measured by calipers and converted to volume by the standard formula of Vol=L×W^2/2. Compound 1R was formulated in 7% PEG400/9% Tween80/84% D5W and administered IV via the tail vein at the indicated days and doses. Day 1 of the study was the first day of treatment. Survival time was the number of days for the tumor to reach 1000 mg or death, whichever occurred earliest. Median survival is the median for the group.\nMice implanted with MX1 human breast cancer tumors were treated with compound 1R as described in EXAMPLE 11. Cisplatin was administered IP whereas doxorubicin was administered IV at the indicated doses."}, "[2]": {"tested_on": "DLD-1", "test": "Caspase activation assay in DLD-1 cells", "type": "cell-based", "details": "Homo sapiens, 24 h incubation, read-out: Caspase activation potency EC50 DLD-1", "method": "Human breast cancer cell lines T-47D and ZR-75-1, human colon cancer cell line DLD-1 and human non-small cell lung cancer cell line H1299 were grown according to media component mixtures designated by American Type Culture Collection+10% FCS (Invitrogen Corporation), in a 5% CO2−95% humidity incubator at 37° C. T-47D and ZR-75-1 cells were maintained at a cell density between 30 and 80% confluency at a cell density of 0.1 to 0.6×10^6 cells/mL. Cells were harvested at 600×g and resuspended at 0.65×10^6 cells/mL into appropriate media+10% FCS. An aliquot of […] of cells was added to a well of a 96-well microtiter plate containing 5 μl of a 10% DMSO in RPMI-1640 media solution containing about 0.16 to 10 μM of 2,7,8-triamino-4-(3-bromo-4,5-dimethoxy-phenyl)-3-cyano-4H-chromene (1) or other test compounds (0.016 to 1 μM final). An aliquot of 45 μl of cells was added to a well of a 96-well microtiter plate containing 5 μl of a 10% DMSO in RPMI-1640 media solution without test compound as the control sample. The samples were mixed by agitation and then incubated at 37° C. for 24 h in a 5% CO2−95% humidity incubator. […] Using a fluorescent plate reader (Model 1420 Wallac Instruments), an initial reading (T=0) was made about 1-2 min after addition of the substrate solution, employing excitation at 485 nm and emission at 530 nm, to determine the background fluorescence of the control sample. After the 3 h incubation, the samples were read for fluorescence as above (T=3 h).\nThe Relative Fluorescence Unit values (RFU) were used to calculate the sample readings as follows: RFU(T=3h)−Control RFU(T=0)=Net RFU(T=3h)\nThe activity of caspase cascade activation was determined by the ratio of the net RFU value for 2,7,8-triamino-4-(3-bromo-4,5-dimethoxy-phenyl)-3-cyano-4H-chromene or other test compound to that of control samples. The EC50 (nM) was determined by a sigmoidal dose-response calculation (Prism 2.0, GraphPad Software Inc.)."}, "[3]": {"tested_on": "SNU398", "test": "Inhibition of cell proliferation (GI50), SNU398", "type": "cell-based", "details": "Homo sapiens, SNU-398; Snu398 cells, 72 h, CellTiter-Glo", "method": "Human breast cancer cells MX-1 and MDAMB435, hepatocarcinoma cells SNU398, colon cancer cells HCT116 and HeLa cells were grown and harvested as in Example 7. An aliquot of […] of cells (4.4×10^4 cells/mL) was added to a well of a 96-well microtiter plate containing 5 μL of a 10% DMSO in RPMI-1640 media solution containing 10 nM to 100 μM of R(−)-2,7,8-triamino-4-(3-bromo-4,5-dimethoxy-phenyl)-3-cyano-4H-chromene (1 nM to 10 μM final). An aliquot of 45 μL of cells was added to a well of a 96-well microtiter plate containing 5 μL of a 10% DMSO in RPMI-1640 media solution without compound as the control sample for maximal cell proliferation (LMax). The samples were mixed by agitation and then incubated at 37° C. for 72 h in a 5% CO2−95% humidity incubator. After incubation, the samples were removed from the incubator and 25 μL of CellTiter-Glo™ reagent (Promega) was added. The samples were mixed by agitation and incubated at room temperature for 10-15 min. Plates were then read using a luminescent plate reader (Model SPECTRAfluor Plus, Tecan) to give Ltest values.\nBaseline for GI50 (dose for 50% inhibition of cell proliferation) of initial cell numbers was determined by adding an aliquot of 45 μL of cells or 45 μL of media, respectively, to wells of a 96-well microtiter plate containing 5 μL of a 10% DMSO in RPMI-1640 media solution. […]"}, "[4]": {"details": "day 1, 2, 3 (QD × 3), first study (cisplatin day 2)"}, "[5]": {"details": "day 1, 8, 15 (QW × 3), second study (cisplatin day 2, 9)"}, "[6]": {"details": "day 1, 8, 15 (QW × 3), third study (doxorubicin)"}}, "data": [{"smiles": "COc1cc([C@H]2C(C#N)=C(N)Oc3c2ccc(N)c3N)cc(Br)c1OC", "note": "[Compound 1R, R(−)-2,7,8-triamino-4-(3-bromo-4,5-dimethoxy-phenyl)-3-cyano-4H-chromene]", "values": [{"measurement": "Median survival", "setting": "[1]; [4]", "result": 38.5, "unit": "days"}, {"measurement": "Number of tumor free mice at day 91", "setting": "[1]; [4]", "result": "4 of 9"}, {"measurement": "Median survival", "setting": "[1]; [5]", "result": 35, "unit": "days"}, {"measurement": "Number of tumor free mice at day 91", "setting": "[1]; [5]", "result": "1 of 7"}, {"measurement": "Median survival", "setting": "[1]; [6]", "result": 40, "unit": "days"}, {"measurement": "Number of tumor free mice at day 91", "setting": "[1]; [6]", "result": "1 of 8"}, {"measurement": "EC50", "setting": "[2]", "result": 57, "unit": "nM"}, {"measurement": "GI50", "setting": "[3]", "result": 28, "unit": "nM"}]}]}
